Reference: US6737383B1, “Herbicidal oxadiazolidines” (priority 1999, dated 2004)

How the values were obtained:
crabgrass = assay: Test B pre/postemergence crabgrass; format: in vivo, Digitaria sanguinalis
How it was run: (§1)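 Test chemicals in a non-phytotoxic solvent mixture with surfactant were sprayed preemergence onto planted seeds and postemergence onto plants 2 to 18 cm tall (1- to 4-leaf stage). After twelve to sixteen days in a greenhouse, injury was visually rated against untreated controls from 0 (no effect) to 10 (complete control).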

corn = assay: Test B pre/postemergence corn; format: in vivo, Zea mays
How it was run: as §1

cocklebur = assay: Test B pre/postemergence cocklebur; format: in vivo, Xanthium strumarium
How it was run: as §1

giant foxtail = assay: Test B pre/postemergence giant foxtail; format: in vivo, Setaria faberii
How it was run: as §1

rape = assay: Test B pre/postemergence rape; format: in vivo, Brassica napus
How it was run: as §1

bedstraw = assay: Test B pre/postemergence bedstraw; format: in vivo, Galium aparine
How it was run: as §1

morningglory = assay: Test B pre/postemergence morningglory; format: in vivo, Ipomoea hederacea
How it was run: as §1

soybean = assay: Test B pre/postemergence soybean; format: in vivo, Glycine max
How it was run: as §1

blackgrass = assay: Test B pre/postemergence blackgrass; format: in vivo, Alopecurus myosuroides
How it was run: as §1

sugar beet = assay: Test B pre/postemergence sugar beet; format: in vivo, Beta vulgaris
How it was run: as §1

surinam grass = assay: Test B pre/postemergence surinam grass; format: in vivo, Brachiaria decumbens
How it was run: as §1

wild oat = assay: Test B pre/postemergence wild oat; format: in vivo, Avena fatua
How it was run: as §1

purple nutsedge = assay: Test B pre/postemergence purple nutsedge; format: in vivo, Cyperus rotundus
How it was run: as §1

velvetleaf = assay: Test B pre/postemergence velvetleaf; format: in vivo, Abutilon theophrasti
How it was run: as §1

pigweed = assay: Test B pre/postemergence pigweed; format: in vivo, Amaranthus retroflexus
How it was run: as §1

wheat = assay: Test B pre/postemergence wheat; format: in vivo, Triticum aestivum
How it was run: as §1

[1] = Preemergence, Rate 62 g/ha, scale of 0 to 10 where 0 is no effect and 10 is complete control
[2] = Preemergence, Rate 125 g/ha, 0 is no effect, 10 is complete control
[3] = Preemergence, Rate 250 g/ha, scale 0 to 10, 0 is no effect, 10 is complete control
[4] = Preemergence, Rate 500 g/ha, scale 0 to 10 (0 no effect, 10 complete control)
[5] = Rate 62 g/ha, Postemergence, scale of 0 to 10 where 0 is no effect and 10 is complete control
[6] = Rate 125 g/ha, Postemergence, scale 0 to 10
[7] = Rate 500 g/ha, Postemergence, scale 0 to 10

Structure (SMILES): CC(C)N(C(=O)n1oc(=O)n(CC2CO2)c1=O)c1ccc(F)cc1 (centres unmarked) [Compound 188]
- Crabgrass plant response rating (crabgrass; [1]): 0
- Crabgrass plant response rating (0 to 10 scale) (crabgrass; [2]): 0
- Crabgrass plant response rating (crabgrass; [3]): 0
- Crabgrass plant response rating (crabgrass; [4]): 0
- Crabgrass plant response rating (crabgrass; [5]): 0
- Crabgrass plant response rating (crabgrass; [6]): 0
- Plant response rating (0 to 10; 0 is no effect, 10 is complete control), Crabgrass (crabgrass; Rate 250 g/ha, Postemergence): 3
- Crabgrass plant response rating (crabgrass; [7]): 3
- Corn plant response rating (corn; [1]): 0
- Corn plant response rating (0 to 10 scale) (corn; [2]): 0
- Corn plant response rating (corn; [3]): 0
- Corn plant response rating (corn; [4]): 0
- Corn plant response rating (corn; [5]): 0
- Corn plant response rating (corn; [6]): 0
- Plant response rating (0 to 10; 0 is no effect, 10 is complete control), Corn (corn; Rate 250 g/ha, Postemergence): 0
- Corn plant response rating (corn; [7]): 0
- Cocklebur plant response rating (cocklebur; [1]): 0
- Cocklebur plant response rating (0 to 10 scale) (cocklebur; [2]): 0
- Cocklebur plant response rating (cocklebur; [3]): 0
- Cocklebur plant response rating (cocklebur; [4]): 0
- Cocklebur plant response rating (cocklebur; [5]): 0
- Cocklebur plant response rating (cocklebur; [6]): 0
- Plant response rating (0 to 10; 0 is no effect, 10 is complete control), Cocklebur (cocklebur; Rate 250 g/ha, Postemergence): 0
- Cocklebur plant response rating (cocklebur; [7]): 0
- Giant foxtail plant response rating (giant foxtail; [1]): 0
- Giant foxtail plant response rating (0 to 10 scale) (giant foxtail; [2]): 2
- Giant foxtail plant response rating (giant foxtail; [3]): 4
- Giant foxtail plant response rating (giant foxtail; [4]): 7
- Giant foxtail plant response rating (giant foxtail; [5]): 0
- Giant foxtail plant response rating (giant foxtail; [6]): 0
- Plant response rating (0 to 10; 0 is no effect, 10 is complete control), Giant foxtail (giant foxtail; Rate 250 g/ha, Postemergence): 2
- Giant foxtail plant response rating (giant foxtail; [7]): 4
- Rape plant response rating (rape; [1]): 0
- Rape plant response rating (0 to 10 scale) (rape; [2]): 0
- Rape plant response rating (rape; [3]): 0
- Rape plant response rating (rape; [4]): 0
- Rape plant response rating (rape; [5]): 0
- Rape plant response rating (rape; [6]): 0
- Plant response rating (0 to 10; 0 is no effect, 10 is complete control), Rape (rape; Rate 250 g/ha, Postemergence): 0
- Rape plant response rating (rape; [7]): 0
- Bedstraw plant response rating (bedstraw; [1]): 0
- Bedstraw plant response rating (0 to 10 scale) (bedstraw; [2]): 0
- Bedstraw plant response rating (bedstraw; [3]): 0
- Bedstraw plant response rating (bedstraw; [4]): 0
- Bedstraw plant response rating (bedstraw; [5]): 0
- Bedstraw plant response rating (bedstraw; [6]): 0
- Plant response rating (0 to 10; 0 is no effect, 10 is complete control), Bedstraw (bedstraw; Rate 250 g/ha, Postemergence): 3
- Bedstraw plant response rating (bedstraw; [7]): 5
- Morningglory plant response rating (morningglory; [1]): 0
- Morningglory plant response rating (0 to 10 scale) (morningglory; [2]): 0
- Morningglory plant response rating (morningglory; [3]): 0
- Morningglory plant response rating (morningglory; [4]): 0
- Morningglory plant response rating (morningglory; [5]): 0
- Morningglory plant response rating (morningglory; [6]): 0
- Plant response rating (0 to 10; 0 is no effect, 10 is complete control), Morningglory (morningglory; Rate 250 g/ha, Postemergence): 0
- Morningglory plant response rating (morningglory; [7]): 0
- Soybean plant response rating (soybean; [1]): 0
- Soybean plant response rating (0 to 10 scale) (soybean; [2]): 0
- Soybean plant response rating (soybean; [3]): 0
- Soybean plant response rating (soybean; [4]): 0
- Soybean plant response rating (soybean; [5]): 1
- Soybean plant response rating (soybean; [6]): 2
- Plant response rating (0 to 10; 0 is no effect, 10 is complete control), Soybean (soybean; Rate 250 g/ha, Postemergence): 2
- Soybean plant response rating (soybean; [7]): 3
- Blackgrass plant response rating (blackgrass; [1]): 0
- Blackgrass plant response rating (0 to 10 scale) (blackgrass; [2]): 0
- Blackgrass plant response rating (blackgrass; [3]): 0
- Blackgrass plant response rating (blackgrass; [4]): 0
- Blackgrass plant response rating (blackgrass; [5]): 0
- Blackgrass plant response rating (blackgrass; [6]): 0
- Plant response rating (0 to 10; 0 is no effect, 10 is complete control), Blackgrass (blackgrass; Rate 250 g/ha, Postemergence): 0
- Blackgrass plant response rating (blackgrass; [7]): 3
- Sugarbeets plant response rating (sugar beet; [1]): 0
- Sugarbeets plant response rating (0 to 10 scale) (sugar beet; [2]): 0
- Sugarbeets plant response rating (sugar beet; [3]): 0
- Sugarbeets plant response rating (sugar beet; [4]): 6
- Sugarbeets plant response rating (sugar beet; [5]): 0
- Sugarbeets plant response rating (sugar beet; [6]): 0
- Plant response rating (0 to 10; 0 is no effect, 10 is complete control), Sugarbeets (sugar beet; Rate 250 g/ha, Postemergence): 0
- Sugarbeets plant response rating (sugar beet; [7]): 7
- B. signalgrass plant response rating (surinam grass; [1]): 0
- B. signalgrass plant response rating (0 to 10 scale) (surinam grass; [2]): 0
- B. signalgrass plant response rating (surinam grass; [3]): 6
- B. signalgrass plant response rating (surinam grass; [4]): 7
- B. signalgrass plant response rating (surinam grass; [5]): 0
- B. signalgrass plant response rating (surinam grass; Rate 125 g/ha, Postemergence, scale 0 (no effect) to 10 (complete control)): 0
- Plant response rating, B. signalgrass (surinam grass; Rate 250 g/ha, Postemergence, scale 0 to 10, 0 is no effect, 10 is complete control): 0
- B. signalgrass plant response rating (surinam grass; Rate 500 g/ha, Postemergence, scale 0 to 10, 0 no effect, 10 complete control): 0
- Wild oats plant response rating (wild oat; [1]): 0
- Wild oats plant response rating (wild oat; [3]): 0
- Wild oats plant response rating (wild oat; [4]): 0
- Wild oats plant response rating (wild oat; [5]): 0
- Wild oats plant response rating (wild oat; [6]): 0
- Plant response rating (0 to 10; 0 is no effect, 10 is complete control), Wild oats (wild oat; Rate 250 g/ha, Postemergence): 0
- Nutsedge plant response rating (purple nutsedge; [1]): 0
- Nutsedge plant response rating (0 to 10 scale) (purple nutsedge; [2]): 0
- Nutsedge plant response rating (purple nutsedge; [3]): 0
- Nutsedge plant response rating (purple nutsedge; [4]): 0
- Nutsedge plant response rating (purple nutsedge; [5]): 0
- Nutsedge plant response rating (purple nutsedge; [6]): 0
- Plant response rating (0 to 10; 0 is no effect, 10 is complete control), Nutsedge (purple nutsedge; Rate 250 g/ha, Postemergence): 0
- Nutsedge plant response rating (purple nutsedge; [7]): 0
- Velvetleaf plant response rating (velvetleaf; [1]): 0
- Velvetleaf plant response rating (velvetleaf; [3]): 0
- Velvetleaf plant response rating (velvetleaf; [4]): 2
- Velvetleaf plant response rating (velvetleaf; [5]): 0
- Velvetleaf plant response rating (velvetleaf; [6]): 0
- Plant response rating (0 to 10; 0 is no effect, 10 is complete control), Velvetleaf (velvetleaf; Rate 250 g/ha, Postemergence): 0
- Redroot pigweed plant response rating (pigweed; [1]): 0
- Redroot pigweed plant response rating (0 to 10 scale) (pigweed; [2]): 0
- Redroot pigweed plant response rating (pigweed; [3]): 0
- Redroot pigweed plant response rating (pigweed; [4]): 0
- Redroot pigweed plant response rating (pigweed; [5]): 0
- Redroot pigweed plant response rating (pigweed; [6]): 0
- Plant response rating (0 to 10; 0 is no effect, 10 is complete control), Redroot pigweed (pigweed; Rate 250 g/ha, Postemergence): 0
- Redroot pigweed plant response rating (pigweed; [7]): 3
- Wheat plant response rating (wheat; [1]): 0
- Wheat plant response rating (wheat; [3]): 0
- Wheat plant response rating (wheat; [4]): 0
- Wheat plant response rating (wheat; [5]): 0
- Wheat plant response rating (wheat; [6]): 0
- Plant response rating (0 to 10; 0 is no effect, 10 is complete control), Wheat (wheat; Rate 250 g/ha, Postemergence): 0
